This note sets out measurements from patent publication US20260256756A1, “USE OF PIPERIDINE ALKENE COMPOUND IN PREPARATION OF DRUG FOR TREATING CANCER” (JIANGSU HANSOH PHARMACEUTICAL GROUP CO., LTD., priority 2023, published 2026).

Molecules are shown by their SMILES.

One experiment deals with MX-1 cells. The experiment can be described thus: In vitro proliferation inhibition (CellTiter-Glo), MX-1. The class given is cell-based. The following applies: Homo sapiens, MX1; MX-1, triple-negative breast cancer, BRCA1 mutation; 6-10 days culture. From the text:
[…]
(§1) Experimental data processing method: The luminescence signal value was used to calculate the inhibition rate. […]
A general note: Cellular ATP, detected with luciferase, serves as a proxy for viable cell number.

For another experiment, the system named is CAOV-3 cells. The experiment can be described thus: In vitro proliferation inhibition (CellTiter-Glo), CAOV-3. The following applies: Homo sapiens; CAOV-3, ovarian cancer, HRD-positive (low expression of ATM protein); 6-10 days culture. The class given is cell-based.
Text: […]
as §1

Experiment [1] relates to human ovarian cancer OV-10-0060 xenograft tumor. The experiment can be described thus: Subcutaneous xenograft tumor model of human ovarian cancer OV-10-0060. The class given is in vivo, BALB/c nude mice. From the text: • 1. Experimental objective: To evaluate the in vivo efficacy of the compound in a subcutaneous xenograft tumor model of human ovarian cancer OV-10-0060 in nude mice. • 2. Reagent • HPMC (A1921068, Shanghai Aladdin Biochemical Technology Co., Ltd.), DMEM medium (11995-065, Gibco) • 3. Experimental operations and data processing • 3.1 Animals: BALB/c nude mice, 6-8 weeks old, female, purchased from the Laboratory Animal Business Department of Shanghai Institute of Planned Parenthood Research. • 3.2 Animal modeling • Tumor tissues were harvested from ovarian cancer xenograft model OV-10-0060 tumor-bearing mice and cut into tumor fragments with a diameter of 2-3 mm, which were subcutaneously inoculated into the right anterior scapula region of BALB/c nude mice. • 3.3 Tumor measurement and grouping in tumor-bearing mice • Prior to drug administration, all animals were weighed, and tumor volumes were measured using a vernier caliper. The tumor volume was calculated as: tumor volume (mm^3)=length (mm)×width (mm)×width (mm)/2. According to the body weight of tumor-bearing mice and the size of the tumor, the mice were grouped by random grouping. • 3.4 Administration in tumor-bearing mice • According to the grouping results, the test drug was started to be administered (administration method: oral administration; administration volume: 10 mL/kg; administration frequency: once/day; administration cycle: 28 days; vehicle: 0.5% HPMC). Tumor measurement and weighing were performed twice a week after starting administration of test drugs. The animals were euthanized at the end of the experiment. • 3.5 Data processing • Data processing was performed using software such as GraphPad Prism. The tumor inhibitory efficacy of the compound was evaluated by TGI (%) and ΔT/ΔC (%). ΔT/ΔC (%)=(T−T0)/(C−C0)×100, where T and C are the tumor volumes of the treatment group and the vehicle control group at the end of the experiment, respectively, and T0 and C0 are the tumor volumes of the treatment group and the vehicle control group at the beginning of the experiment, respectively. Tumor growth inhibition (TGI) (%)=100−ΔT/ΔC (%). Tumor growth inhibition (TGI) (%)=100−(T−T0)/T0×100 when tumor regression occurs • 4. Experimental results and conclusions
A general note: A xenograft is tissue or cells of one species grown in another, often human tumour cells in immunodeficient mice.

Another experiment relates to PSN-1 cells. The experiment can be described thus: In vitro proliferation inhibition (CellTiter-Glo), PSN-1. The class given is cell-based. To be noted: Homo sapiens, PSN1; PSN-1, pancreatic cancer, HRD-positive (low expression of MRE11A/CHEK2 protein); 6-10 days culture.
Text: […]
as §1

The mark [2] stands for this setting: OV-10-0060, 10 mg/kg oral once/day, Day 27.
Setting [3] is: OV-10-0060, 100 mg/kg oral once/day, Day 27.

As a reminder, the IC50 is the concentration that gives 50% inhibition. The term T/C denotes the ratio of treated to control. What is called TGI is the reduction of tumour growth relative to the control group. With `CCc1cc2ncc(CN3CCN(c4ccc(C(=O)NC)nc4)CC3)cc2[nH]c1=O` [AZD5305], the figures for the IC50 in the experiment with MX-1 cells, in the experiment on CAOV-3 cells and in the experiment on PSN-1 cells were 0.0041 ± 0.0016 µM, 0.004 ± 0.0008 µM and 0.0021 ± 0.0005 µM, respectively. In addition, the “Tumor volume (Mean ± SEM)” value in experiment [1] (OV-10-0060, 10 mg/kg oral once/day, Day 0) is 124 ± 4 mm^3; in experiment [1] (setting [2]), 1,378 ± 99 mm^3. This compound had a T/C in experiment [1] (setting [2]) of 61.08%. In experiment [1] (setting [2]), the inhibition of tumour growth (TGI) was 41.19%.

With `O=C(c1cc(Cc2n[nH]c(=O)c3ccccc23)ccc1F)N1CCN(C(=O)C2CC2)CC1` [Olaparib], the 50% inhibitory concentration (IC50) with MX-1 cells amounted to 0.246 ± 0.104 µM; with CAOV-3 cells it was 0.151 ± 0.018 µM; in the experiment on PSN-1 cells, 0.065 ± 0.019 µM. Besides, the “Tumor volume (Mean ± SEM)” value is 124 ± 4 mm^3 in experiment [1] (OV-10-0060, 100 mg/kg oral once/day, Day 0) and 1,787 ± 158 mm^3 in experiment [1] (setting [3]). This compound had a T/C in experiment [1] (setting [3]) of 79.24%. This compound also had a TGI in experiment [1] (setting [3]) of 22.00%.
